US20250213463A1, “TOPICAL COMPOSITION AND USES THEREOF” (COTY INC., priority 2021, published 2025)

Test system: Normal human primary fibroblasts
Test: Fibronectin release by UV-irradiated normal human primary fibroblasts (Human Magnetic Luminex Assay)
Assay type: cell-based
Experimental: Normal human primary fibroblasts were seeded in culture well plates at 200,000 cells/cm^2 with DMEM (Dulbecco's Modified Eagle Medium) culture medium. 24 hours later, culture medium was removed, cells were rinsed with PBS (Phosphate Buffered Saline), and fresh PBS was applied to the cells. Cells were then exposed to UV irradiation (from 300 to 400 nm) for a time to cause physical and/or chemical UV-induced change, without exposure to active ingredients. Immediately after irradiation, PBS was removed and the active ingredients creatine, palmitoylTripeptide-5 (Lys-Val-Lys) and bifida ferment lysate diluted in culture medium were applied for 72 hours. Cells were incubated at +37° C. with 5% CO2.
Quantification of fibronectin release was performed by using Human Magnetic Luminex Assays (ref: LXSAHM-03) according to the protocol described by the supplier. Results were expressed in pg/ml.

Row | Compound | effect on fibronectin production/levels (in words) (UV-irradiated fibroblasts, 72 hours treatment, FIG. 1) | increase in fibronectin production over either no treatment or creatine treatment alone (UV-irradiated fibroblasts, 72 hours treatment) | fibronectin production in irradiated cells (fibroblasts exposed to UV (300 to 400 nm), then actives in culture medium for 72 hours)
1 | CN(CC(=O)O)C(=N)N [Creatine] | does not appear to exert a positive impact | – | –
2 | palmitoylTripeptide-5 (Lys-Val-Lys) | – | 36.9% | 550K
